Tested on: PS19 mice (tau P301S)
Assay: PS19 mouse model of Frontotemporal dementia-related proteotoxicity, oral daily CA
Type: in vivo
Procedure: FIG. 11. Chemical activation of CMA improves behavior and neuropathology in a mouse model of Frontotemporal dementia-related proteotoxicity. (A) Schematic of regimen of CMA activator (CA) administration to mice overexpressing human P301S tau (PS19). (B, C) Spontaneous locomotion in an open field of 9-month-old CTR or PS19 mice administered vehicle (Veh) or CA. Representative tracks (B) and total distance traveled in 10 min (C). (D-H) Immunostaining for MC1 tau in the hippocampus, the amygdala and the piriform cortex of 9 months old CTR, PS19 +/− CA. Representative images of the indicated brain regions (D). Scale bars: hippocampus: 500 μm, amygdala and piriform cortex: 200 μm. Quantification of the area stained in the hippocampus (E), (F-J) Immunoblots for tau and phosphorylated tau. Representative immunoblots and densitometric quantifications for the indicated proteins: S422-phosphorylated tau (G), S202/T205-phosphorylated tau (AT8) (H), MC1 tau (I) and total tau (J). (K-M) Immunostaining for Iba1 (K) and quantification of average cell size in the hippocampus (L) and the piriform cortex (M). Scale bars: hippocampus: 500 μm and piriform cortex: 200 μm. Data are mean+s.e.m. Individual values are shown for n=9-10 mice per genotype and treatment in C, E, G-M). Comparisons were made using one-way ANOVA followed by Tukey's post-hoc analysis (C, E, G, I-M) or Kruskal-Wallis test followed by Dunn's post hoc test (H). *p<0.05, **p<0.005, ***p<0.0005.
Male wild-type mice (C57BL/6J) or transgenic for CaMKIIα-Cre (B6.Cg-Tg(Camk2α-cre)T29-1Stl/J, Jackson Laboratory), LAMP-2A^flox/flox (Schneider et al., 2014), Tau^P301L (line pR5), Tg (APP^Swe; PS2^N141I; Tau^P301L), PS19 (Tau^P301S) (Yoshiyama et al., 2007) and Atg7^f/f were used in the study. Conditional LAMP-2A deletion was generated by breeding LAMP-2A^flox/flox with the transgenic Cre mice of interest. Knockout for L2A in the whole body (L2A^−/−) was generated by insemination of a wild-type female with spermatozoids with L2A floxed to excise this gene in all tissues in the offspring. Male littermate wild type and only L2A^f/f were separately analyzed for each test and because no differences were detected among them, they were grouped in the results as “control” (CTR) for the experimental group (^CamKII[…] CreL2A^f/f or L2A^−/−). All mice were genotyped at weaning and genotyping was re-confirmed postmortem to correct for any possible misplacement during husbandry. Mice were all in the C57BL/6J background and maintained under specific pathogen-free conditions in ventilated cages with no more than 5 mice per cage. Only males were used in this study due to the complexity in generating the quadruple transgenic mouse model with L2A knock out in homozygosis (for which we took advantage of the location of the Lamp2 gene in the X chromosome). Age of the animals was 4-6 months in most experiments except when otherwise indicated in text, figures and figure legends. Animals were maintained at 19-23° C. in 12 h light/dark cycle. Mice were fed ad libitum. CA77.1 was administered as sucralose jelly pellets for a daily dose of 30 mg/Kg body weight whereas the vehicle treated group received the same sucralose jelly pellet without drug. Briefly, for preparation of the jelly pellets the final amount of the compound per day (adjusted per animal weight) was dissolved in ethanol and then mixed with a warm gelatin solution (100 mg/ml, 10 mg/ml sucralose in water), that was poured into 24 well flat bottom plates for solidification. To avoid animal stress and competition for the pellets, animals were separated with a grid spacer in the same cage that they were housed, eating of the pellet was monitored and the spacer was removed as soon as all mice consumed the pellet (average time 2 min). Sentinel animals were included in each study to determine brain exposure at the end of treatment. These animals received the same batch of jelly pellets in parallel to the experimental group. […]

With `CC(=O)Nc1ccc(-c2cnc3cc(Cl)ccc3n2)cc1` [CA77.1] the “spontaneous locomotion in open field (locomotor hyperactivity)” value (30 mg/kg body weight oral daily for 6 months from 3 months of age) was “normalized the previously described locomotor hyperactivity of PS19 mice to control levels”, the “immunoblot levels of aberrant, phosphorylated, oligomeric and insoluble tau” value (30 mg/kg oral daily, 6 months) was “lower levels of conformationally aberrant, S422 and AT8 phosphorylated, oligomeric and insoluble forms of tau” and the “total levels of human tau” value (30 mg/kg oral daily, 6 months) was “did not reduce total levels of human tau”. For the same molecule, the “number of microglial cells and large Iba1-positive dystrophic cells” value (hippocampus and piriform cortex, 30 mg/kg oral daily, 6 months) was “reduced upon CA treatment”, the “MC1 pathogenic tau conformations, levels and number of neurons” value (hippocampus, amygdala and piriform cortex, 30 mg/kg oral daily, 6 months) was “reduced the levels and number of neurons containing pathogenic tau conformations” and the “mice with tau Type III pathology (S202/T205, AT8 staining)” value (hippocampus, 30 mg/kg oral daily, 6 months, vehicle 60%) was 10%.
